Results on two compounds are retold here after patent US5204373A, “Farnesylated tetrahydro-naphthalenols as hypolipidemic agents” (Bristol-Myers Squibb Company, priority 1991, dated 1993).

The test system of assay [1] is β-Hydroxy-β-Methylglutaryl Coenzyme A Reductase (HMGR). In words: Ex vivo HMGR suppression in the liver of drug dosed chickens. More on the design: species or system chicken. To be noted: test compound 50 ppm in diet for four weeks, control 33.8. As for the experimental part:
β-Hydroxy-β-Methylglutaryl Coenzyme A Reductase (HMGR) activity in the liver of drug dosed chickens.
(§1) Newborn male chicks (8 for each group) were raised on a standard corn-soybean based control diet for two weeks and then switched to either control or experimental diets for four weeks. Drug treatment consisted of the addition of test compounds to the corn-soybean-based diet at a concentration of 50 ppm. At the end of the feeding period, all the birds were fasted (36 hours) and refed (48 hours) to induce cholesterolgenic enzymes prior to sacrifice. The specific activity of HMGR, total serum cholesterol levels, LDL cholesterol and HDL cholesterol pools were determined using previously described methods (Qureshi et al., J. Biol. Chem., 261, 10544 (1986)) (Table 1).

A further assay has as its system LDL. In words: LDL antioxidant assay (conjugated diene formation). To be noted: for LR (end of lag phase of LDL oxidation) vs control: whole rabbit plasma incubated with drug, LDL isolated, time of first derivative maximum of conjugated diene kinetic curve. The class given is biochemical, rabbit. On the procedure: Inhibition of LDL oxidation as measured by conjugated diene formation.
Whole rabbit plasma was incubated with either vehicle or drug, and the LDL was isolated by ultracentrifugation. EDTA was removed by dialysis and analysis of co-dependent LDL oxidation was determined by conjugated diene formation using the protocol established by Esterbauer et al., (Free Radical Res. Commun. 6(1), 75-75 (1989)). The time of the first derivative maximum in the kinetic curves, corresponding to the end of the lag phase (LR) of the reaction, indicates both the intrinsic effectiveness of the antioxidant combined with its local concentration with in the LDL particles. […] Substitution of methylene for oxygen at position 1 would diminish antioxidant capacity.

The test system of a further assay is 6-week old male chickens. In words: In vivo lipid metabolism evaluation in normocholesterolemic chickens (serum cholesterol pools). More on the design: species or system chicken. Particulars: test compound 50 ppm in corn-soybean diet for four weeks; for LDL Cholesterol: control 62.7 ± 2.5; for HDL Cholesterol: control 99.9 ± 1.9; for Total Cholesterol: fasted 36 h, refed 48 h, control 183.0 ± 4.5. On the procedure: Serum cholesterol, triglycerides, low density and high density liproprotein cholesterol as determined in drug treated birds.
as §1

Regarding `CC(C)=CCC/C(C)=C/CC/C(C)=C/CCC1(C)CCc2cc(O)ccc2C1` (centres unmarked) [Compound 12, 5,6,7,8-Tetrahydro-6-Methyl-6-(4,8,12-Trimethyl-3(E), (7E), 11-tridecatrienyl)-2-Naphthalenol], the “HMGR (specific activity)” value in assay [1] is reported as 14.6. The “LDL antioxidation properties (in words)” value in the assay with LDL (rabbit LDL, conjugated diene formation) is listed as “exhibits LDL antioxidation properties”. In addition, the “LR (end of lag phase of LDL oxidation) vs control” value in the assay on LDL was found to be 1.32. Further, in the assay with 6-week old male chickens, the “LDL Cholesterol” value is given as 28.4 ± 1.3, the “HDL Cholesterol” value came to 85.3 ± 1.3 and the “Total Cholesterol” value was found to be 125.5 ± 3.0.
Consider `CC(C)=CCC/C(C)=C/CC/C(C)=C/CCC1(C)CCc2cc(O)ccc2O1` (centres unmarked) [Tocotrienol, reference compound], for which the “HMGR (specific activity)” value in assay [1] is 13.6. In addition, in the assay on LDL, the “LR (end of lag phase of LDL oxidation) vs control” value is 2.01. Also, in the assay with 6-week old male chickens, the “LDL Cholesterol” value worked out at 42.8 ± 2.8, the “HDL Cholesterol” value is on record as 91.7 ± 1.0 and the “Total Cholesterol” value is 149.8 ± 4.5.
